From patent US12611387B2, “Compound and composition for inducing neuroprotection” (REST THERAPEUTICS, priority 2020, dated 2026) come the findings set out here.

For one series, the system named is Iba-1. The series is described as follows: Immunohistochemical quantification of Iba-1 (microgliosis). It is filed as in vivo, mice. The following applies: 0.3 mg/Kg i.p. The protocol:
The neuroprotective effect of the compounds, i.e. the ability thereof to protect cells from Aβ25-35 oligomer neurotoxicity and neurodegeneration, is also tested (FIG. 10). The test compounds are thus administered on the same day as the injection of the Aβ25-35 oligomers and are continued to be administered on a daily basis up to day 7 after the injection of the oligomers, at which time the mice are subjected to the YMT, PAT, MWT or ORT. The brain's anatomy is analysed and neuronal cells are counted by immunohistochemistry on mice sacrificed at D13. The biochemical analyses for the quantification of markers of oxidative stress and apoptosis were carried out at D16 on a group of mice that had been subjected to the WMT (FIG. 10).
They were previously anaesthetised by i.p. injection of 200 μL of a solution of ketamine (80 mg/Kg) and xylazine (10 mg/Kg), then the tissues were fixed by intracardiac perfusion of 50 mL of a saline solution followed by 50 mL of Antigenfix® fixative (Diapath). The samples were kept for a further 48 hours in the fixative at 4° C., and then the mouse brains were stored in a 30% sucrose solution in PBS, before being sliced.
Slices were taken of each area of the brain, in particular the cortex, the nucleus basalis magnocellularis and the hippocampus (i.e. between bregma +1.8 and bregma −2.8 according to the stereotaxic coordinates of the mouse brain, Paxinos et al., 2004). Serial coronal sections with a thickness of 25 μm were cut with a freezing microtome (Microm HM 450, Thermo Fisher) and stored at −20° C. in a cryoprotective solution. […]
Immunohistochemical labelling is carried out in a conventional manner. […] After rinsing with PBS, the sections were mounted in a mounting fluid (ProLong, ThermoFischer) and images of each section were taken with a confocal fluorescence microscope (Leica SPE) for different sub-regions of the hippocampus such as the stratum radiatum (Rad), the stratum moleculare (Mol), the polymorphic layer of the dentate gyrus (PoDG) and for the cortex, the lateral parietal association area (LPtA). […]

The subject of the next series is non-intoxicated mice. The series is described as follows: Y-maze, amnestic effect in non-intoxicated mice. The conditions noted are these: 10 mg/Kg i.p. It is filed as in vivo. The procedure:
The spontaneous alternation test was used to assess spatial working memory (very short-term memory) in rodents. The maze was made of grey opaque polyvinylchloride (PVC). Each arm was 40 cm long, 13 cm high, 3 cm wide at the bottom, and 10 cm wide at the top. The arms converged towards one another at an equal angle between the different arms. In brief, each mouse was placed at the end of one arm and allowed to move freely during an 8 min session. The mouse's entries into each arm, including the arm at whose end it was placed, are recorded. An alternation is defined as the animal's successive entry into three different arms. The number of maximum alternations is thus the total number of entries into each arm minus 2 and the percentage of alternation was calculated according to the formula: % Alt=number of actual alternations/maximum number of alterations×100
The parameters measured included the percentage of alternations (memory index) and the total number of entries into the arms of the maze (exploration index, Maurice et al., 1994, 1996; Meunier et al., 2006, 2013; Villard et al., 2009, 2011). Data from the animals showing extreme behaviour (percentage of alternation <25% or >90%, or a number of entries less than 10) were excluded from the calculations. The attrition rate was routinely 5%. Under normal conditions, a mouse will spontaneously alternate exploring each of the arms. A mouse with impaired memory and/or orientation abilities will have a lower percentage of alternations.
In this experiment, memantine and FENM were administered at a dose of 10 mg/Kg i.p. and the performance of the mice was tested using the passive avoidance test and the Y-maze with non-intoxicated mice.

The subject of series [1] is Aβ25-35 oligomer-intoxicated mice. Briefly: Y-maze test, symptomatic treatment. It is filed as in vivo. The conditions noted are these: doses 0.1; 0.3; 1.0; 3 and 10 mg/Kg i.p., symptomatic design. The protocol:
The test compounds were tested for their ability to decrease the cognitive symptoms of Aβ25-35 oligomer-induced neurodegeneration, i.e. their ability to provide symptomatic anti-amnestic treatment (FIGS. 1A and 1B). In brief, to test the symptomatic effect of the test compounds, they were administered 8 days after the icy injection of the Aβ25-35 oligomers, 30 minutes before the YMT and PAT memory tests were conducted or 30 minutes before the test, but after the training session, in the case of the MWT or ORT (FIG. 1A). […]
The spontaneous alternation test was used to assess spatial working memory (very short-term memory) in rodents. […] The mouse's entries into each arm, including the arm at whose end it was placed, are recorded. […] The number of maximum alternations is thus the total number of entries into each arm minus 2 and the percentage of alternation was calculated according to the formula: % Alt=number of actual alternations/maximum number of alterations×100
The parameters measured included the percentage of alternations (memory index) and the total number of entries into the arms of the maze (exploration index, Maurice et al., 1994, 1996; Meunier et al., 2006, 2013; Villard et al., 2009, 2011). […]

As for `NC12CC3CC(C1)CC(CCF)(C3)C2` [FENM, 3-(2-fluoroethyl)adamantan-1-amine], in the series on Iba-1 (all brain areas tested (Rad, Mol, PoDG, LPtA)), the “Iba-1 labelling (microglial response)” value is “significantly decreases the astrocytic and microglial response in all of the brain areas tested”. In the series on non-intoxicated mice, the “Alternation (%)” value is listed as 63.7 ± 4.2% and the Number of entries was determined as 32.7 ± 3.4. The “restoring Alt % in the Y-maze test, effective doses” value in series [1] is on record as “effective at all doses tested from 0.1 mg/Kg”.
Consider `CC12CC3CC(C)(C1)CC(N)(C3)C2` [memantine, 3,5-Dimethyl-1-adamantanamine, reference compound], for which the “Iba-1 labelling (microglial response)” value with Iba-1 (PoDG area) is “positive effect in the PoDG area”. Moreover, the “Iba-1 labelling (microgliosis)” value in the series with Iba-1 (cortex (LPtA)) was “no effect”. In the series on non-intoxicated mice, the “Alternation (%)” value came out at 48.8 ± 3.0 % and the Number of entries is 28.2 ± 2.9. The “restoring Alt % in the Y-maze test, effective doses” value in series [1] is on record as “only effective at 0.3 mg/Kg”.
